From the supplement of paper PMC8988213
Counter-ions that a name gives are not always drawn.

How the values were obtained:
[1] = tested on: ID211 patient-derived PDAC 2D line (post-FOLFIRINOX); test: normalised area under dose-response curve (viability relative to DMSO, 7 doses up to 10 µM) (fraction (AUC)); higher = less sensitive (more viability retained); conditions: 72 h; top dose: 10 µM
Outline: (§1)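 A robot plated 1,500–3,000 cells/well of patient-derived 2D PDAC cells, outgrown from organoids, into 96-well plates, followed by overnight incubation at 37°C, 5% CO2. The cells were exposed for 72 h to SelleckChem library compounds at seven 3-fold-diluted concentrations up to 10 µM, and CellTiter-Glo luminescence was read after 10 min. Area under the dose-response curve came from the GRmetrics R package, with viability normalised to control wells.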

[2] = tested on: ID188 patient-derived PDAC 2D line (pre-FOLFIRINOX); test: as above; conditions: 72 h; top dose: 10 µM
Outline: as §1

SMILES	normalised area under dose-response curve [1]	normalised area under dose-response curve [2]
O=C(Nc1ccc(OC(F)(F)F)cc1)c1sccc1NCc1ccnc2ccccc12 [OSI-930]	0.819	0.904
Cc1cc(O)c(-c2ccc([C@@H](C)CN)cc2)c2c1[nH]c(=O)c1sccc12 [OTS514 hydrochloride]	0.443	0.368
Cc1sc2c(c1C)C(c1ccc(Cl)cc1)=N[C@@H](CC(=O)Nc1ccc(O)cc1)c1nnc(C)n1-2 [OTX015]	0.631	0.817
COC[C@H](NC(=O)c1cnc(C)s1)C(=O)N[C@@H](COC)C(=O)N[C@@H](Cc1ccccc1)C(=O)[C@@]1(C)CO1 [Oprozomib (ONX 0912)]	0.333	0.427
Cc1[nH]c(/C=C2\C(=O)Nc3ccccc32)c(C)c1CCC(=O)O [Orantinib (TSU-68, SU6668)]	0.843	0.845
C=CC(=O)Nc1cc(Nc2nccc(-c3cn(C)c4ccccc34)n2)c(OC)cc1N(C)CCN(C)C [Osimertinib (AZD9291)]	0.749	0.855
O=C(O)C(=O)O.[NH-][C@@H]1CCCC[C@H]1[NH-].[Pt+2] [Oxaliplatin]	0.844	0.901
Cc1cc(CS(=O)(=O)c2ccccc2)cc(OCc2ccc(CN3CCC[C@@H]3CO)cc2)c1 [PF-543]	0.903	0.924
O=C(Nc1cccnc1)N1CCC(Cc2cccc(Oc3ccc(C(F)(F)F)cn3)c2)CC1 [PF-3845]	0.912	0.905
COc1ccccc1C(=O)Nc1cc2c(cc1N1CCCC1)n(C)c(=O)n2C [PFI-4]	0.787	0.955
O=C(/C=C/c1ccc2ccccc2n1)c1ccncc1 [PFK15]	0.778	0.911
CCCCCCCCCCCCc1ccc(S(=O)(=O)Nc2nncs2)cc1 [PHT-427]	0.931	0.871
CC(=O)Nc1nc(C)c(-c2ccc(Cl)c(S(=O)(=O)NCCO)c2)s1 [PIK-93]	0.807	0.927
CCCS(=O)(=O)Nc1ccc(F)c(C(=O)c2c[nH]c3ncc(Cl)cc23)c1F [PLX-4720]	0.842	0.886
N#CSc1cc(SC#N)c(N)nc1N [PR-619]	0.875	0.921
O=C1C2CCN(CC2)C1(CO)CO [PRIMA-1]	0.867	0.947
O=C1C(=Cc2cccnc2)C(=O)c2ccccc21 [PRT4165]	0.746	0.875
O=C(Nc1cc(Cl)cc2c1[nH]c1cnccc12)c1cccnc1 [PS-1145]	0.839	0.923
COc1cc(Br)c(Nc2nc(-c3c(C)nc4ncccn34)cs2)c(Br)c1 [PTC-209 HBr]	0.819	0.836
CCC(C)SSc1ncc[nH]1 (stereo unspecified) [PX-12]	0.903	0.985
CCOC(=O)c1ccc(N2NC(=O)C(=Cc3ccc([N+](=O)[O-])o3)C2=O)cc1 [PYR-41]	0.807	0.91
CC(=O)O[C@H]1C(=O)[C@@]2(C)[C@H]([C@H](OC(=O)c3ccccc3)[C@]3(O)C[C@H](OC(=O)[C@H](O)[C@@H](NC(=O)c4ccccc4)c4ccccc4)C(C)=C1C3(C)C)[C@]1(OC(C)=O)CO[C@@H]1C[C@@H]2O [Paclitaxel]	0.444	0.432
Cc1[nH]c2ccccc2c1CCNCc1ccc(/C=C/C(=O)NO)cc1 [Panobinostat (LBH589)]	0.306	0.421
CCOc1cc2ncc(C#N)c(Nc3ccc(F)c(Cl)c3)c2cc1NC(=O)/C=C/CN(C)C [Pelitinib (EKB-569)]	0.631	0.846
NS(=O)(=O)OC[C@@H]1C[C@@H](n2ccc3c(N[C@H]4CCc5ccccc54)ncnc32)C[C@@H]1O [Pevonedistat (MLN4924)]	0.589	0.825
CS(=O)(=O)N1CCN(Cc2cc3nc(-c4cccc5[nH]ncc45)nc(N4CCOCC4)c3s2)CC1 [Pictilisib (GDC-0941)]	0.596	0.683
CC(C)N(C[C@H]1O[C@@H](n2cnc3c(N)ncnc32)[C@H](O)[C@@H]1O)[C@H]1C[C@@H](CCc2nc3cc(C(C)(C)C)ccc3[nH]2)C1 [Pinometostat (EPZ5676)]	0.8	0.916

SMILES	normalised area under dose-response curve [1]	normalised area under dose-response curve [2]
CC(C)(C)c1[nH]cnc1/C=c1\[nH]c(=O)/c(=C/c2ccccc2)[nH]c1=O [Plinabulin (NPI-2358)]	0.355	0.588
C=CC(=O)N1CCC(Oc2cc3c(Nc4ccc(Cl)c(Cl)c4F)ncnc3cc2OC)CC1 [Poziotinib (HM781-36B)]	0.54	0.908
CCCCc1nc2cc(/C=C/C(=O)NO)ccc2n1CCN(CC)CC [Pracinostat (SB939)]	0.799	0.778
CC(C)(C)c1cc(NC(=O)Nc2ccc(-c3cn4c(n3)sc3cc(OCCN5CCOCC5)ccc34)cc2)no1 [Quizartinib (AC220)]	0.809	0.974
Nc1cc(F)ccc1NC(=O)/C=C/c1cnn(C/C=C/c2ccccc2)c1 [RGFP966]	0.779	0.911
Cc1cc2c3c([n+](C)c4ccc(F)cc4c3c1)-c1cc(F)ccc1N2C [RHPS 4 methosulfate]	0.906	0.945
O=C(NCc1cccc(O)c1)Nc1nc(-c2ccncc2)cs1 [RKI-1447]	0.962	1.04
O=C(CBr)N1CC([N+](=O)[O-])([N+](=O)[O-])C1 [RRx-001]	0.843	0.915
COC(=O)c1ccc([C@H]2c3[nH]c4ccccc4c3C[C@H](C(=O)OC)N2C(=O)CCl)cc1 [RSL3]	0.175	0.465
CNC(=O)c1cc(Oc2ccc(NC(=O)Nc3cc(C(C)(C)C)nn3-c3ccc4ncccc4c3)c(F)c2)ccn1 [Rebastinib (DCC-2036)]	0.885	0.853
CNC(=O)c1cc(Oc2ccc(NC(=O)Nc3ccc(Cl)c(C(F)(F)F)c3)c(F)c2)ccn1 [Regorafenib (BAY 73-4506)]	0.936	0.775
N#Cc1ccc(-c2csc(NN=C3CCCC3)n2)cc1 [Remodelin]	0.854	0.941
CN(C)C(=O)c1cc2cnc(Nc3ccc(N4CCNCC4)cn3)nc2n1C1CCCC1 [Ribociclib (LEE011)]	0.812	0.961
C/C=C1\NC(=O)[C@H]2CSSCC/C=C/[C@H](CC(=O)N[C@H](C(C)C)C(=O)N2)OC(=O)[C@H](C(C)C)NC1=O [Romidepsin]	0.171	0.138
Cc1nc(C(=O)NCC(=O)O)c(O)c2ccc(Oc3ccccc3)cc12 [Roxadustat (FG-4592)]	0.842	0.951
O=C(NNc1nc2cc(F)ccc2n2cccc12)c1cnccn1 [SC144]	0.631	0.795
CC(C)(C)C(=O)Nc1ccc2c(c1)C(=O)C(=O)c1ccccc1-2 [SF1670]	0.809	0.966
O=c1cc(N2CCOCC2)oc2c(-c3ccc4c(c3)OCCO4)csc12 [SF2523]	0.768	0.968
O=C(NCC(=O)N1CCCC1)Nc1ccc2cnccc2c1 [SGC707]	0.863	0.955
CC(C)N(CCCNC(=O)Nc1ccc(C(C)(C)C)cc1)C[C@H]1O[C@@H](n2cc(Br)c3c(N)ncnc32)[C@H](O)[C@@H]1O [SGC 0946]	0.809	0.94
COc1ccc(CCc2nc3cc(-c4c(C)noc4C)ccc3n2C[C@H](C)N2CCOCC2)cc1Cl [SGC-CBP30]	0.951	0.984
Cc1cc(Nc2ccc(NC(=O)c3ccc(Nc4ccnc5ccccc45)cc3)cc2)nc(N)n1 [SGI-1027]	0.569	0.662
CN1CCC(CNc2ccc3ncc(-c4cccc(OC(F)(F)F)c4)n3n2)CC1 [SGI-1776 free base]	0.788	0.949
Cc1c[nH]c2nc(Nc3ccc(N4CCN(C)CC4)c(F)c3)nc(-c3cccc(CC#N)c3)c12 [SGI-7079]	0.638	0.803
Cn1cc(-c2ccc3nnc(Sc4ccc5ncccc5c4)n3n2)cn1 [SGX-523]	0.941	0.983
CC1(N)CCN(c2cnc(-c3cccc(Cl)c3Cl)c(N)n2)CC1 [SHP099 dihydrochloride]	0.91	0.963
